Data reported in patent publication US20060025419A1, “Imidazoquinoxaline compound for the treatment of melanoma” (priority 2004, published 2006).

How the values were obtained:
NF-κB = experiment: NF-κB-dependent luciferase reporter assay; type: cell-based, human; settings: 36 h
Method: FIGS. 2A-2D. […] SK-Mel-5 cells were plated in 6-well plates (1.5×10^5 cells per well) and then cotransfected with 1 μg of HIV long terminal repeat NF-κB-luciferase vector and β-galactosidase vector DNA using Lipofectamine Plus reagent. Twenty-four hours after transfection, cells in duplicate plates were treated with 0, 0.1, 1 and 10 μM of BMS-345541in DMSO and incubated for an additional 36 h. Cell extract was prepared and luciferase activity was detected. Luciferase activity was normalized to β-galactosidase activity. […] ATP. The [γ-^32P]-labeled IκBα protein was visualized by autoradiography. […] The supernatants from B were cleared by centrifugation, or (FIG. 2D) sera were collected from mice, and subjected to ELISA assay for CXCL1 according to the manufacture's protocol. Data shown are from a representative data set from two experiments performed in duplicate (total n=4 for each point). For ELISA; the mean value is representative of serum samples from five mice.

SK-Mel-5 tumors = experiment: Melanoma tumor growth in nude mice; type: in vivo; settings: 21 days
Method: FIGS. 1A-1E. […] After 72 h treatment, cells were photographed. […] 2×10^6 SK-Mel-5 melanoma cells were subcutaneously inoculated into nude mice (n=5 mice per group). […] Tumor size was measured using an electronic digital caliper at intervals of 4 days. Tumor volume was calculated and statistically analyzed.
Animal experimentation was undertaken according to protocols approved by the Institutional of Animal Care and Use Committee at Vanderbilt University. […] Tumor size was measured with an electronic digital caliper. Tumor volume was calculated by width^2×length×0.52 and expressed as mean±SD mm^3.

SMILES: Cc1ccc2nc(NCCN)c3ncc(C)n3c2c1.Cl [BMS-345541, 4(2′-aminoethyl)amino-1,8-dimethylimidazo(1,2-a)quinoxaline]
- reduction in NF-κB-dependent luciferase activity (NF-κB; SK-Mel-5, 0.1 μM): 36%
- reduction in NF-κB-dependent luciferase activity (NF-κB; SK-Mel-5, 1.0 μM): 75%
- reduction in NF-κB-dependent luciferase activity (NF-κB; SK-Mel-5, 10 μM): 95%
- SK-Mel-5 tumor growth (FIG. 1B) (SK-Mel-5 tumors; 10, 25 and 75 mg/kg orally once daily): effectively inhibits SK-Mel-5 tumor growth in a dose-dependent manner
- inhibition of tumor growth (SK-Mel-5 tumors; SK-Mel-5 tumors, 75 mg/kg orally once daily, vs vehicle): 86±2.8%
